Assay results reported in patent publication US5495032A, “Process for producing 7-(substituted)-8-(substituted-9-[(substituted glycyl)amido]-6-demethyl-6-deoxytetracyclines” (priority 1994, dated 1996).
≈ marks a conversion by molar mass, not a printed value. Read-outs that look alike come from different tables or passages of the source.

Experiments:
Format in all cases: cell-based
S. mariescens FPOR 8733 = assay: MIC, agar dilution method; conditions: 18 hours at 35° C.
[1] = tested on: S. aureus UBMS 88-7 Tet K; assay: microbe, parasite or virus in culture; conditions: 18 hours at 35° C.
S. aureus ROSE (MP) = assay: MIC, agar dilution method; conditions: 18 hours at 35° C.
[2] = tested on: Ps. acruginosa ATCC 27853; assay: MIC, agar dilution method; conditions: Ps. acruginosa ATCC 27853; 18 hours at 35° C.; read-out: MIC
E. faecalis ATCC 29212 = assay: MIC, agar dilution method; conditions: Enterococcus faecalis, ATCC29212, 18 h, 18 hours at 35° C.
[3] = tested on: X. maltophilia NEMC 87210; assay: MIC, agar dilution method; conditions: Stenotrophomonas maltophilia, NEMC87210, 18 hours at 35° C., read-out: MIC
E. coli UBMS 88-1 Tet B = assay: microbe, parasite or virus in culture; conditions: 18 hours at 35° C.
E. coli PRP1 Tet A = assay: microbe, parasite or virus in culture; conditions: 18 hours at 35° C.
[4] = tested on: S. aureus UBMS 90-2 Tet M; assay: microbe, parasite or virus in culture; conditions: 18 hours at 35° C.
E. coli J2175 = assay: MIC, agar dilution method; conditions: 18 hours at 35° C.
S. aureus IVES 1 983 = assay: MIC, agar dilution method
[5] = tested on: S. aureus UBMS 90-1 Tet M; assay: microbe, parasite or virus in culture; conditions: 18 hours at 35° C.
[6] = tested on: S. hemolyticus AVHAH 88-3; assay: MIC, agar dilution method
[7] = tested on: E. coli UBMS 89-2 Tet sens; assay: MIC, agar dilution method; conditions: 18 hours at 35° C.
E. coli #311 (MP) = assay: MIC, agar dilution method; conditions: 18 hours at 35° C.
S. aureus UBMS 90-3 = assay: MIC, agar dilution method
[8] = tested on: E. coli MC 4100 Tet sens.; assay: MIC, agar dilution method; conditions: Escherichia coli, 18 hours at 35° C., read-out: MIC
E. coli J3272 Tet D = assay: microbe, parasite or virus in culture
[9] = tested on: E. coli MC 4100 TNIOC Tet B; assay: microbe, parasite or virus in culture; conditions: 18 hours at 35° C.
S. aureus SMITH (MP) = assay: MIC, agar dilution method; conditions: 18 hours at 35° C.
E. coli UBMS 90-4 Tet M = assay: microbe, parasite or virus in culture; conditions: 18 hours at 35° C.
S. aureus UBMS 88-4 = assay: MIC, agar dilution method
[10] = tested on: S. aureus UBMS 88-5 Tet M; assay: microbe, parasite or virus in culture
E. coli UBMS 89-1 Tet M = assay: microbe, parasite or virus in culture; conditions: 18 hours at 35° C.
E. coli ATCC 25922 = assay: MIC, agar dilution method
E. coli UBMS 90-5 sens = assay: MIC, agar dilution method; conditions: 18 hours at 35° C.
S. aureus NEMC 8769 = assay: MIC, agar dilution method; conditions: Staphylococcus aureus, NEMC8769, 18 h
E. coli BAJ9003 IMP MUT = assay: microbe, parasite or virus in culture; conditions: 18 hours at 35° C.
S. aureus ATCC 29213 = assay: MIC, agar dilution method; conditions: 18 hours at 35° C.
Enterococcus 12201 = assay: MIC, agar dilution method; conditions: 18 hours at 35° C.
S. aureus IVES 2943 = assay: MIC, agar dilution method
E. coli J3272 Tet C = assay: microbe, parasite or virus in culture
[11] = Escherichia coli, read-out: MIC

CN(C)CC(=O)Nc1c(O)c2c(c(N(C)C)c1Cl)CC1CC3[C@H](N(C)C)C(O)=C(C(N)=O)C(=O)[C@@]3(O)C(O)=C1C2=O (stereo partly drawn) [B, [4S-(4α,12aα)]-8-Chloro-4,7-(dimethylamino)-9-[[(dimethylamino)acetyl]amino]-1,4,4a,5,5a,6,11,12a-octahydro-3,10,12,12a-tetrahydroxy-1,11-dioxo-2-naphthacenecarboxamide]
MIC (S. mariescens FPOR 8733; 18 h): > 32 µg/mL
MIC ([1]; Staphylococcus aureus, UBMS887TETK, 18 h): 2 µg/mL (≈ 3.38 µM)
MIC (S. aureus ROSE (MP); Staphylococcus aureus, 18 h): 8 µg/mL (≈ 13.5 µM)
MIC [2]: > 32 µg/mL
MIC (E. faecalis ATCC 29212): 0.12 µg/mL (≈ 0.203 µM)
MIC [3]: 0.5 µg/mL (≈ 0.845 µM)
MIC (E. coli UBMS 88-1 Tet B; Escherichia coli, UBMS881TETB, 18 h): > 32 µg/mL
MIC (E. coli PRP1 Tet A; Escherichia coli, PRP1TETA, 18 h): 16 µg/mL (≈ 27 µM)
MIC ([4]; Staphylococcus aureus, UBMS902TETM, 18 h): 0.25 µg/mL (≈ 0.422 µM)
MIC (E. coli J2175; [11]): 32 µg/mL (≈ 54 µM)
MIC (S. aureus IVES 1 983; Staphylococcus aureus, IVES1983, 18 h): 4 µg/mL (≈ 6.76 µM)
MIC ([5]; Staphylococcus aureus, UBMS901TETM, 18 h): 0.5 µg/mL (≈ 0.845 µM)
MIC ([6]; Streptococcus pyogenes, AVHAH883, 18 hours at 35° C., read-out: MIC): 0.5 µg/mL (≈ 0.845 µM)
MIC ([7]; Escherichia coli, UBMS892TETSENS, 18 h, read-out: MIC): 16 µg/mL (≈ 27 µM)
MIC (E. coli #311 (MP); [11]): 4 µg/mL (≈ 6.76 µM)
MIC (S. aureus UBMS 90-3; Staphylococcus aureus, UBMS903, 18 h): 0.12 µg/mL (≈ 0.203 µM)
MIC [8]: 2 µg/mL (≈ 3.38 µM)
MIC (E. coli J3272 Tet D; Escherichia coli, J3272TETD, 18 h): 32 µg/mL (≈ 54 µM)
MIC ([9]; Escherichia coli, 18 h): > 32 µg/mL
MIC (S. aureus SMITH (MP); Staphylococcus aureus, 18 h): 0.12 µg/mL (≈ 0.203 µM)
MIC (E. coli UBMS 90-4 Tet M; Escherichia coli, UBMS904TETM, 18 h): > 32 µg/mL
MIC (S. aureus UBMS 88-4; Staphylococcus aureus, UBMS884, 18 hours at 35° C., read-out: MIC): 0.25 µg/mL (≈ 0.422 µM)
MIC ([10]; Staphylococcus aureus, UBMS885TETM, 18 h): 0.25 µg/mL (≈ 0.422 µM)
MIC (E. coli UBMS 89-1 Tet M; Escherichia coli, UBMS891TETM, 18 h): 32 µg/mL (≈ 54 µM)
MIC (E. coli ATCC 25922; Escherichia coli, ATCC25922, 18 hours at 35° C., read-out: MIC): 8 µg/mL (≈ 13.5 µM)
MIC (E. coli UBMS 90-5 sens; Escherichia coli, UBMS905SENS, read-out: MIC): 32 µg/mL (≈ 54 µM)
MIC (S. aureus NEMC 8769): 0.12 µg/mL (≈ 0.203 µM)
MIC (E. coli BAJ9003 IMP MUT; Escherichia coli, BAJ9003IMPMUT, 18 h): 0.12 µg/mL (≈ 0.203 µM)
MIC (S. aureus ATCC 29213; Staphylococcus aureus, ATCC29213, 18 h): 0.25 µg/mL (≈ 0.422 µM)
MIC (Enterococcus 12201; Enterococcus, 12201, 18 h): 0.12 µg/mL (≈ 0.203 µM)
MIC (S. aureus IVES 2943; Staphylococcus aureus, IVES2943, 18 h): 4 µg/mL (≈ 6.76 µM)
MIC (E. coli J3272 Tet C; Escherichia coli, J3272TETC, 18 h): 16 µg/mL (≈ 27 µM)

CN(C)CC(=O)Nc1c(Cl)cc2c(c1O)C(=O)C1=C(O)[C@]3(O)C(=O)C(C(N)=O)=C(O)[C@@H](N(C)C)C3CC1C2 (stereo partly drawn) [C, [4S-(4α,12aα)]-8-Chloro-4-(dimethylamino)-9-[[(dimethylamino)acetyl]amino]-1,4,4a,5,5a,6,11,12a-octahydro-3,10,12,12a-tetrahydroxy-1,11-dioxo-2-naphthacenecarboxamide]
MIC (S. mariescens FPOR 8733): 8 µg/mL (≈ 14.6 µM)
MIC [1]: 0.25 µg/mL (≈ 0.455 µM)
MIC (S. aureus ROSE (MP)): 1 µg/mL (≈ 1.82 µM)
MIC [2]: > 32 µg/mL
MIC (E. faecalis ATCC 29212): 0.5 µg/mL (≈ 0.911 µM)
MIC [3]: 0.05 µg/mL (≈ 0.0911 µM)
MIC (E. coli UBMS 88-1 Tet B): 1 µg/mL (≈ 1.82 µM)
MIC (E. coli PRP1 Tet A): 8 µg/mL (≈ 14.6 µM)
MIC [4]: 1 µg/mL (≈ 1.82 µM)
MIC (E. coli J2175): 1 µg/mL (≈ 1.82 µM)
MIC (S. aureus IVES 1 983; S. aureus IVES 1 983, 18 hours at 35° C.): 4 µg/mL (≈ 7.29 µM)
MIC [5]: 4 µg/mL (≈ 7.29 µM)
MIC ([6]; 18 hours at 35° C.): 0.5 µg/mL (≈ 0.911 µM)
MIC [7]: 1 µg/mL (≈ 1.82 µM)
MIC (E. coli #311 (MP)): 0.5 µg/mL (≈ 0.911 µM)
MIC (S. aureus UBMS 90-3; S. aureus UBMS 90-3, 18 hours at 35° C.): 0.12 µg/mL (≈ 0.219 µM)
MIC [8]: 0.25 µg/mL (≈ 0.455 µM)
MIC (E. coli J3272 Tet D; E. coli J3272 Tet D, 18 hours at 35° C.): 0.5 µg/mL (≈ 0.911 µM)
MIC [9]: 1 µg/mL (≈ 1.82 µM)
MIC (S. aureus SMITH (MP)): 0.12 µg/mL (≈ 0.219 µM)
MIC (E. coli UBMS 90-4 Tet M): 0.5 µg/mL (≈ 0.911 µM)
MIC (S. aureus UBMS 88-4; 18 hours at 35° C.): 0.12 µg/mL (≈ 0.219 µM)
MIC ([10]; S. aureus UBMS 88-5 Tet M, 18 hours at 35° C.): 2 µg/mL (≈ 3.64 µM)
MIC (E. coli UBMS 89-1 Tet M): 0.25 µg/mL (≈ 0.455 µM)
MIC (E. coli ATCC 25922; 18 hours at 35° C.): 0.5 µg/mL (≈ 0.911 µM)
MIC (E. coli UBMS 90-5 sens): 1 µg/mL (≈ 1.82 µM)
MIC (S. aureus NEMC 8769): 0.03 µg/mL (≈ 0.0546 µM)
MIC (E. coli BAJ9003 IMP MUT): 0.12 µg/mL (≈ 0.219 µM)
MIC (S. aureus ATCC 29213): 0.25 µg/mL (≈ 0.455 µM)
MIC (Enterococcus 12201): 8 µg/mL (≈ 14.6 µM)
MIC (S. aureus IVES 2943; S. aureus IVES 2943, 18 hours at 35° C.): 4 µg/mL (≈ 7.29 µM)
MIC (E. coli J3272 Tet C; E. coli J3272 Tet C, 18 hours at 35° C.): 8 µg/mL (≈ 14.6 µM)
